PMC5694347 (Clinical cancer research : an official journal of the …, 2015)
Marks after values point to notes of the source that are not given here.

System: patients with relapsed and/or refractory lymphoma or MM
Test: Safety: adverse events graded by NCI CTCAE version 3.0
[1] = Schedule A, n=27, high-level term

NS(=O)(=O)OC[C@@H]1C[C@@H](n2ccc3c(N[C@H]4CCc5ccccc54)ncnc32)C[C@@H]1O [pevonedistat]
1 (4) n (%): Abdominal discomfort, All grades (Schedule A, n=27) | Diarrhea, Grade ≥3 (Schedule A, n=27) | Dyspnea, Grade ≥3 (Schedule A, n=27) | Hyperbilirubinemia, All grades (Schedule A, n=27) | Hyperkalemia, Grade ≥3 (Schedule A, n=27) | Pain, Grade ≥3 (Schedule A, n=27) | Pneumonia, All grades (Schedule A, n=27) | Pneumonia, Grade ≥3 (Schedule A, n=27) | Sinus tachycardia, Grade ≥3 (Schedule A, n=27) | Thrombocytopenia, Grade ≥3 (Schedule A, n=27) | Weight decreased, All grades (Schedule A, n=27)
18 (67) n (%): Fatigue, All grades (Schedule A, n=27)
10 (37) n (%): Constipation, All grades (Schedule A, n=27) | Myalgia, All grades (Schedule A, n=27)
2 (7) n (%): Asthenia, All grades (Schedule A, n=27) | Cough, All grades (Schedule A, n=27) | Dehydration, All grades (Schedule A, n=27) | Fatigue, Grade ≥3 (Schedule A, n=27) | Hypercalcemia, Grade ≥3 (Schedule A, n=27) | Neutropenia, All grades (Schedule A, n=27) | Neutropenia, Grade ≥3 (Schedule A, n=27) | Paresthesia, All grades (Schedule A, n=27) | Productive cough, All grades (Schedule A, n=27) | Sinus tachycardia, All grades (Schedule A, n=27)
2 (12) n (%): AST increased, All grades (Schedule B, n=17)
4 (15) n (%): Blood creatinine increased, All grades (Schedule A, n=27) | Hyperkalemia, All grades (Schedule A, n=27) | Muscle spasms, All grades (Schedule A, n=27) | Pain in extremity, All grades (Schedule A, n=27)
27 (100) n (%): Any AE, All grades (Schedule A, n=27)
3 (11) n (%): Back pain, All grades (Schedule A, n=27) | Hypophosphatemia, Grade ≥3 (Schedule A, n=27) | Insomnia, All grades (Schedule A, n=27) | Peripheral edema, All grades (Schedule A, n=27) | Thrombocytopenia, All grades (Schedule A, n=27) | Upper respiratory tract infection, All grades (Schedule A, n=27) | Peripheral neuropathies NEC, All grades [1]
16 (59) n (%): Any AE, Grade ≥3 (Schedule A, n=27)
7 (26) n (%): Anemia, All grades (Schedule A, n=27) | Diarrhea, All grades (Schedule A, n=27) | Headache, All grades (Schedule A, n=27) | Vomiting, All grades (Schedule A, n=27)
6 (22) n (%): Blood alkaline phosphatase increased, All grades (Schedule A, n=27) | Decreased appetite, All grades (Schedule A, n=27) | Dizziness, All grades (Schedule A, n=27) | Hypomagnesemia, All grades (Schedule A, n=27) | Pain, All grades (Schedule A, n=27)
2 (7) ^a n (%): AST increased, Grade ≥3 (Schedule A, n=27, 1 DLT)
1 (4) ^a n (%): ALT increased, Grade ≥3 (Schedule A, n=27, 1 DLT) | Muscle spasms, Grade ≥3 (Schedule A, n=27, 1 DLT)
5 (19) n (%): Anemia, Grade ≥3 (Schedule A, n=27) | Chills, All grades (Schedule A, n=27) | Dyspnea, All grades (Schedule A, n=27) | Hypercalcemia, All grades (Schedule A, n=27) | Hypophosphatemia, All grades (Schedule A, n=27) | Vision blurred, All grades (Schedule A, n=27)
3 (18) n (%): Abdominal discomfort, All grades (Schedule B, n=17)
4 (24) n (%): ALT increased, All grades (Schedule B, n=17)
1 (6) n (%): ALT increased, Grade ≥3 (Schedule B, n=17)
11 (41) n (%): Pyrexia, All grades (Schedule A, n=27)
12 (44) n (%): ALT increased, All grades (Schedule A, n=27) | AST increased, All grades (Schedule A, n=27) | Nausea, All grades (Schedule A, n=27)
0 n (%): Abdominal discomfort, Grade ≥3 (Schedule A, n=27) | Asthenia, Grade ≥3 (Schedule A, n=27) | Back pain, Grade ≥3 (Schedule A, n=27) | Blood alkaline phosphatase increased, Grade ≥3 (Schedule A, n=27) | Blood creatinine increased, Grade ≥3 (Schedule A, n=27) | Chills, Grade ≥3 (Schedule A, n=27) | Constipation, Grade ≥3 (Schedule A, n=27) | Cough, Grade ≥3 (Schedule A, n=27) | Decreased appetite, Grade ≥3 (Schedule A, n=27) | Dehydration, Grade ≥3 (Schedule A, n=27) | Dizziness, Grade ≥3 (Schedule A, n=27) | Dyspepsia, All grades (Schedule A, n=27) | Dyspepsia, Grade ≥3 (Schedule A, n=27) | Dyspnea exertional, All grades (Schedule A, n=27) | Dyspnea exertional, Grade ≥3 (Schedule A, n=27) | Headache, Grade ≥3 (Schedule A, n=27) | Hyperbilirubinemia, Grade ≥3 (Schedule A, n=27) | Hypomagnesemia, Grade ≥3 (Schedule A, n=27) | Insomnia, Grade ≥3 (Schedule A, n=27) | Myalgia, Grade ≥3 (Schedule A, n=27) | Nausea, Grade ≥3 (Schedule A, n=27) | Pain in extremity, Grade ≥3 (Schedule A, n=27) | Paresthesia, Grade ≥3 (Schedule A, n=27) | Peripheral edema, Grade ≥3 (Schedule A, n=27) | Productive cough, Grade ≥3 (Schedule A, n=27) | Pyrexia, Grade ≥3 (Schedule A, n=27) | Upper respiratory tract infection, Grade ≥3 (Schedule A, n=27) | Vision blurred, Grade ≥3 (Schedule A, n=27) | Vomiting, Grade ≥3 (Schedule A, n=27) | Weight decreased, Grade ≥3 (Schedule A, n=27) | Peripheral neuropathies NEC, Grade ≥3 [1] | AST increased, Grade ≥3 (Schedule B, n=17)
